Laboratory results reported in a melting point compilation (Tetko et al.; mined from patent text by program, amines drawn as free bases though some values may be those of a salt).

Row | Structure (SMILES) | melting point [°C]
1 | COc1ccc(CC(=O)N2CCN(C(=S)SC)CC2)c(OC)c1OC | 119 to 120
2 | Cc1nc(Cl)n(-c2ccccc2)n1 | 81 to 84
3 | CCOC(=O)C(C)=NNc1ccc(C)cc1C | 146
4 | CC(C)(C)c1cc([PH](=O)c2cc(C(C)(C)C)cc(C(C)(C)C)c2)cc(C(C)(C)C)c1 | 185
5 | CCCCCCCCCCCCCCCCCCOc1cc(OCCOCCOCCOCC)cc(C(=O)O)c1 | 38 to 40
6 | CCCCOC1C=CC(=O)N1S(=O)(=O)c1ccccc1 (stereo unspecified) | 66 to 67
7 | C=Cn1cc(C(=O)O)c(=O)c2ccc(Cl)cc21 | 269
8 | Cc1c(C(=O)C(N)=O)c2c(OCC(=O)O)cccc2n1Cc1ccccc1 | 218 to 220
9 | COc1ccc(C(=O)NC(=O)N2CC2C#N)cc1 (stereo unspecified) | 130 to 132
10 | NCC(C(=O)O)C1CCCCC1 (stereo unspecified) | 238 to 240
11 | CSc1ncc(F)c(NCc2ccccc2F)n1 | 144 to 146
12 | COC(=O)N1OCC(=Cc2cc(C(C)(C)C)c(O)c(C(C)(C)C)c2)C1=O | 191 to 192
13 | O=[N+]([O-])c1ccc2c(c1)CC(Cl)c1ccccc1S2 (stereo unspecified) | 74 to 77
14 | O=C1C(O)OCN1c1cccc(C(F)(F)F)c1 (stereo unspecified) | 75 to 76
15 | CCC(C)(CC)c1ccc(=O)[nH]n1 | 97 to 99
16 | CC(C)(C)OC(=O)N1CCC2(Cc3cc4ccccc4n3C2)C1 (stereo unspecified) | 104 to 106
17 | CCCCc1ncc(/C=C(\Cc2cccs2)C(=O)O)n1Cc1ccc(C(=O)O)cn1 | 212 to 213
18 | CCc1nn(-c2ccccc2)nc1/C(C#N)=C(\OC(=O)C(C)(C)C)c1c(C)c(C)nn1C | 119
19 | O=C(O)c1ccc(C#Cc2cc(C#Cc3ccc(C(=O)O)cc3)cc(C#Cc3ccc(C(=O)O)cc3)c2)cc1 | 218
20 | CCCc1nc2c(N)nc3ccccc3c2n1CCOCCCCl | 131 to 132
21 | COc1cc(N)cc(N)c1 | 79 to 80
22 | Brc1cc2c(c(C34CC5CC(CC(C5)C3)C4)c1)OCO2 | 136
23 | CCC1=CN2CC(c3ccc(Br)cc3)N=C2S1 (stereo unspecified) | 74.8
24 | CC(C)(C)c1ccc(N)c([N+](=O)[O-])c1 | 107 to 108

Row | Structure (SMILES) | melting point [°C]
25 | Cc1nc(Sc2cc(C(=O)O)ccn2)sc1CC(=O)O | 212 to 214
26 | CCCCN1C(=O)c2cncnc2Nc2ccccc21 | 145 to 147
27 | CSc1[nH]cc(CCc2ccccc2)c1[N+](=O)[O-] | 198 to 200
28 | N=C(c1ccccc1)c1cc(Cl)ccc1O | 129 to 131
29 | C[C@@H](Oc1cc(-c2cnn(C3CCNCC3)c2)cnc1N)c1c(Cl)ccc(F)c1Cl | 194
30 | CCOCc1cc(COc2cc(CCC(=O)O)n(-c3ccccc3)n2)cc(Oc2ncc(C(F)(F)F)cc2Cl)c1 | 124 to 128
31 | ClCc1csc(N2CCOCC2)n1 | 87 to 88
32 | OC1CSC(Oc2cncc(-c3cccs3)c2)C(O)C1O (stereo unspecified) | 205
33 | Nc1ccc(C(=O)O)c(C(=O)O)c1 | 188
34 | CCCCc1ccc(C(=O)N[C@H](Cc2ccc(C(F)(F)F)cc2)[C@@H](O)c2ccc(F)cc2)cc1 (racemic) | 171 to 172
35 | CC(=Cc1ccc(Cl)cc1Cl)[N+](=O)[O-] | 75
36 | COc1ccc(C(C#Cc2ccccc2)Cc2noc(C(F)(F)F)n2)cc1OC1CCCC1 (racemic) | 96 to 98
37 | Cc1nc(-c2cc(C(C)(C)C)c3c(c2)C(C)(C)CO3)no1 | 81 to 82
38 | C=C(Cc1ccccc1)C(=O)NN1CCNCC1 | 78
39 | COCCCNC(=O)NC(=O)C(C#N)=NO | 126 to 127
40 | C=CCOC(=O)CCCOc1cc([N+](=O)[O-])c(CO)cc1OC | 73 to 75
41 | O=[N+]([O-])c1ccc2c(c1-c1n[nH]cc1Cl)OC(F)(F)O2 | 180
42 | OCC1CCC(n2cnc3cc(Cl)c(Cl)cc32)C1 (stereo unspecified) | 142 to 145
43 | CCc1cnc(-n2cc(CCCO)c(C(C)C)n2)nc1 | 70 to 71
44 | COc1cc(Cl)c2c(c1)C=C(C(=O)O)C(C(F)(F)F)O2 (stereo unspecified) | 204 to 207
45 | CC(C)(CCCCCCCC(=O)CCCCCCCC(C)(C)C(=O)O)C(=O)O | 74 to 77
46 | O=[N+]([O-])c1cc2nc(O)c(O)nc2cc1C(F)(F)F | > 300
47 | CCCCSc1cc(C(=O)OCC)cc(S(N)(=O)=O)c1Cc1ccccc1 | 120 to 122

Next, values leading:

Row | melting point [°C] | Structure (SMILES)
48 | 150 to 153 | CC(C)c1ccc(-c2cnc(-c3cccc(C(=O)O)c3)o2)cc1
49 | 162 to 165 | CC(C)(C)c1cc(CNC(=O)Nc2cccc(C(F)(F)F)c2)nn1-c1ccc(S(C)(=O)=O)cc1
50 | 189 to 191 | CCCc1nc2c(N)nc3ccc(-c4cccc(CN)c4)cc3c2s1
51 | 267 to 268 | Cc1cc(-c2nc3ccc(CN4CCOCC4)cc3c(=O)[nH]2)ccn1
52 | 230 to 235 | COc1ccc(-c2cnn3c(N)c(-c4ccc(F)c(F)c4)c(C)nc23)cc1OC
53 | 196 to 197 | CCn1c(=O)c2c(nc(/C=C/c3ccc(OC)c(C)c3OC)n2C)n(CC)c1=O
54 | 150 to 151 | CCOC(=O)N1CCN(c2ccc(C(=O)CCc3ccc(NC4=NCCN4)cc3)cc2)CC1
55 | 133 to 134 | CCOCCNC(=O)Oc1cccc(NC(=O)C=C(C)OC)c1
56 | 129 to 130 | CCc1cc(NCc2ccc(-n3cccc3-c3nnn[nH]3)cc2)n2nccc2n1
57 | 120 to 121 | Cc1c(C)c2c(c(C)c1OCc1ccccc1)CC(C)(CN1CCN(c3ccccc3)CC1)O2 (stereo unspecified)
58 | 172 to 174 | COc1ccc(C(=O)Nc2ccccc2C(=O)NCCCC(=O)O)cc1
59 | 108 | Cc1cccc(C(=O)c2ccc(Cl)cc2)c1
60 | 148 to 152 | Cc1cccc(C)c1N(CCC(C)N1C(=O)c2ccccc2C1=O)S(C)(=O)=O (stereo unspecified)
61 | > 300 | COc1ccc(-c2[nH]nc3c2C(=O)c2c(NC(=O)NN(C)C)cccc2-3)cc1
62 | 252 to 253 | Cc1cc(-c2nc3cccnn3c2-c2ccnc(NC(=O)c3ccc4ncsc4c3)c2)ccc1F
63 | 90 to 91 | CCOP(=O)(NN=C(c1ccc(Cl)cc1)c1ccc(OS(C)(=O)=O)cc1)OCC
64 | 98.2 to 99.2 | O=C(C=Cc1ccccc1)c1c(Cl)cccc1Cl
65 | 159 to 160 | Nc1nccc(-c2ccccc2OCC(O)CN2CCN(c3ccc(Cl)cc3)CC2)n1 (stereo unspecified)
66 | 168 | CCCCS(=O)(=O)Nc1ccc(Oc2ccc3cccnc3c2)cc1
67 | 162 to 168 | CCCCc1nc2ccccn2c(=O)c1-c1ccc(N[C@@H]2CCN(C(=O)OC(C)(C)C)C2)cc1C
68 | 198 | COc1ccc2sc(C(=O)Oc3ccccc3)c(Oc3ccccc3)c2c1
69 | 191 to 192 | Cc1ccc(-c2nc(C)c(-c3ccnc(Nc4ccc(N5CCOCC5)cc4)n3)s2)c(C)c1
70 | 110 to 112 | CC(C)c1nc2ccccc2n1CCCCCSc1nc(-c2ccc(N(C)C)cc2)c(-c2ccc(N(C)C)cc2)[nH]1
71 | 162 | COc1nc(C)nc(N(C)C(=O)NS(=O)(=O)c2ccccc2OC(F)(F)F)n1
72 | 73 to 74 | CC(NC(=O)CCl)(c1ccccc1)c1ccccc1
73 | 178 to 180 | COC(=O)CN1CC(N2C(=O)c3ccccc3C2=O)C1=O (stereo unspecified)
74 | 140 to 142 | CCCc1nc2c(N)nc3ccccc3c2n1CCCC(C)N(OC)C(=O)Nc1ccccc1 (stereo unspecified)

Row | melting point [°C] | Structure (SMILES)
75 | 208 to 209 | Cc1nc(-c2ccccc2)nc(-c2ccncc2)c1N
76 | 215 to 216 | COc1cccc2c1OC(C(=O)N1CCC(NC(=O)Nc3ccccc3)CC1)CC2 (stereo unspecified)
77 | 138 to 141 | CC(C)(C)NCC(O)COc1ccccc1C1=NNC(=O)CC1 (stereo unspecified)
78 | 150 to 152 | O=C1Cc2cccc(Oc3ccccc3O)c2O1
79 | 163 to 165 | CC(C)NCC(O)COc1cccc2c1C(=Cc1ccccc1)C(=O)N2 (stereo unspecified)
80 | 167 to 168 | COc1cc(C(=O)N2Cc3ccc(C(=O)NCc4ccc5c(c4)OCO5)n3Cc3ccccc32)ccc1-c1ccccc1C
81 | 117 to 118 | Cc1nnc(-c2ccc3occ(-c4ccccc4)c3c2)o1
82 | 118 to 119 | CC(CCCc1ccccc1)(C(=O)O)c1ccc(CCCNC(=O)c2ccc(-c3ccccn3)cc2)cc1 (stereo unspecified)
83 | 250 to 252 | O=C1NC(=O)C(Cc2ccc(OC3=C(Cl)C(=O)c4ccccc4C3=O)cc2)S1 (stereo unspecified)
84 | 135 | COc1cc(CCN2CCN(c3nsc4ccccc34)CC2)c([N+](=O)[O-])cc1OC
85 | 138 to 140 | CCOC(=O)Cn1c(C(=O)NCc2nnc(C)n2-c2sc(CC)cc2C(=O)c2ccccc2Cl)cc2ccccc21
86 | 323 to 324 | CN(C)C1=NS(=O)(=O)c2ccccc21
87 | 97 to 99 | CC(C)(C)OC(=O)N1CCC(C(=O)Nc2ccccc2Oc2ccc(Cl)cc2)CC1
88 | 106 to 108 | O=c1ccoc2c(CCCc3ccccc3)c(OCc3ccccc3)ccc12
89 | 168 to 170 | COC(=O)[C@H](Cc1ccc(N2C(=O)c3ccc(Br)cc3C2=O)cc1)NC(=O)OC(C)(C)C
90 | 170 to 173 | N=C(N)NCCCCOc1ccc2c(c1)CC(CC(=O)O)C(=O)N2 (stereo unspecified)
91 | 55 | OCCc1ccc(OCc2ccc(Cl)cc2Cl)cc1
92 | 275 to 277 | COc1cccc2c1OCc1nc(C(=O)O)cn1-2
93 | 132 to 134 | COc1ccc(-n2nc(C(=O)CCCO[N+](=O)[O-])cc2-c2ccc(S(C)(=O)=O)cc2)cc1
94 | 132 to 137 | COC(=O)c1ccccc1OCCOc1cccc2ccccc12
95 | 178 to 191 | O=C(Nc1cccc2c(N3CCN(Cc4ccccc4)C3=O)ccnc12)c1c(Cl)cccc1Cl
96 | 162 to 168 | COc1cc2c(c3c1OC(C)(C)C3)C(c1cccc(N3C(=O)c4ccccc4C3=O)c1)=NC(C)(C)C2
97 | 188 to 190 | O=C(Cc1ccc(O)c2[nH]ncc12)NCc1ccccc1
98 | 127 to 130 | CC(=O)N1CCN=C1COc1cccc(C)c1C
99 | 149 to 150 | Clc1ccc(-c2csc(-c3cnccc3Cl)n2)cc1
100 | 69 to 70 | COC(=O)C(CCSC)NC(=O)c1ccc(NC(=O)Cc2cn(C)cn2)cc1-c1ccccc1 (stereo unspecified)
101 | 88 to 88.5 | COc1cc([N+](=O)[O-])ccc1-c1cccc(C(=O)OC(C)(C)C)c1
